The record followed here is PubChem BioAssay AID588426 (Johns Hopkins Ion Channel Center, 2011).

Each structure is given as a SMILES string. Active and inactive are the calls of the source.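 The calls were made as follows: active = blocks KCNQ2 potassium channel current at some tested dose, with a fitted dose response curve; inactive = the rest.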

The target of the first assay is Potassium voltage-gated channel subfamily KQT member 2 (Rattus norvegicus) (UniProt O88943). Kind of assay: blockers of rat KCNQ2 potassium current – automated electrophysiology, CHO cells, CRC2, orthogonal assay for KCNQ2 inhibitor project, SAR follow-up (AID 588426). The note with it: KCNQ2-CHO automated patch clamp current. (The patch-clamp technique gives a direct electrical read-out from membranes.)
Chain of Potassium voltage-gated channel subfamily KQT member 2 (Rattus norvegicus) (O88943 whole entry, looked up): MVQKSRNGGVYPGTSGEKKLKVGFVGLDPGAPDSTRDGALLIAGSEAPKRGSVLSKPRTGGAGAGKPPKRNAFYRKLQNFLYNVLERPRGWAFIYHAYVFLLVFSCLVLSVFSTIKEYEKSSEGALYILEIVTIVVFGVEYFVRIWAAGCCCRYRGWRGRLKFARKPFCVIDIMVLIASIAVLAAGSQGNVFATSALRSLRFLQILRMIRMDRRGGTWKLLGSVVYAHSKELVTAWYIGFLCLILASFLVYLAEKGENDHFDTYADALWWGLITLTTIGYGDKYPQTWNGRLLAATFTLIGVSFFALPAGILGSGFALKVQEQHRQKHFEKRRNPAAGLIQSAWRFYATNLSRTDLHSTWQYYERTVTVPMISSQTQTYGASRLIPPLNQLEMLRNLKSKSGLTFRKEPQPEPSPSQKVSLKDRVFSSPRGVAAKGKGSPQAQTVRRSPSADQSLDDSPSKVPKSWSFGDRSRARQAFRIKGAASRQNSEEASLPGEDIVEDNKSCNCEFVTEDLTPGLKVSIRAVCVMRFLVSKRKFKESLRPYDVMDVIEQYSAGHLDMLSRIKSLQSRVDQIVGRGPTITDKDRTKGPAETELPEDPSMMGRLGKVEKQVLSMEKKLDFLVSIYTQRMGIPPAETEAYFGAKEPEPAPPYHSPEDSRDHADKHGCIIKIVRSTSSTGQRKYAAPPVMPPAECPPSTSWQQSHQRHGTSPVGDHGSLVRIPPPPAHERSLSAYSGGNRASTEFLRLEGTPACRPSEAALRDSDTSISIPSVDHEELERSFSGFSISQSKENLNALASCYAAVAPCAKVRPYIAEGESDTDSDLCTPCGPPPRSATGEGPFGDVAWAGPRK
For the molecule `C[C@@H](C(=O)Nc1ccccc1N1CCCC1)c1ccccc1`, the IC50 was 5130 nM.

Regarding `CCC(C(=O)Nc1ccccc1N1CCCC1)c1cccc(C(F)(F)F)c1` (configuration not stated), the IC50 is 390 nM.

Regarding `CCC(C(=O)Nc1ccccc1N1CCCC1)c1ccc(F)cc1` (configuration not stated), the IC50 is 130 nM.

For the molecule `CCC(C(=O)Nc1ccccc1N1CCCC1)c1ccc(OC)cc1` (configuration not stated), the concentration for half-maximal inhibition (IC50) is 380 nM.

Consider `CC[C@@H](C(=O)Nc1ccccc1N1CCCC1)c1ccccc1`, for which the IC50 is 940 nM.

Regarding `CCC(C(=O)Nc1ccccc1N1CCCC1)c1ccc(OC)c(OC)c1` (configuration not stated), the IC50 was 20200 nM.

With `CCC(C(=O)Nc1ccccc1N1CCCC1)c1ccccc1Cl` (configuration not stated), the IC50 is 3310 nM.

With `C[C@H](C(=O)Nc1ccccc1N1CCCC1)c1ccccc1`, the 50% inhibitory concentration (IC50) was 590 nM.

Consider `CCC(C(=O)Nc1ccccc1N1CCCC1)c1cccc(OC)c1` (configuration not stated), for which the 50% inhibitory concentration (IC50) is 120 nM.

Take `CCC(C(=O)Nc1ccc(N2CCCC2)cc1)c1ccccc1` (configuration not stated): the half-inhibitory concentration (IC50) was 210 nM.

As to `CC(C)CC(C(=O)Nc1ccccc1N1CCCC1)c1ccccc1` (configuration not stated), the IC50 was 2220 nM.

Turning to `O=C(Cc1ccc(F)cc1)Nc1ccccc1N1CCCC1`, the IC50 is 700 nM.

`O=C(Nc1ccccc1N1CCCC1)[C@H]1CCCc2ccccc21`: the IC50 was 24600 nM.

`O=C(Cc1ccc(Cl)c(Cl)c1)Nc1ccccc1N1CCCC1`: the IC50 is 1070 nM.

In the case of `CCC(C(=O)Nc1ccccc1-n1cccc1)c1ccccc1` (configuration not stated), the 50% inhibitory concentration (IC50) was 5270 nM.

With `CCC(C(=O)Nc1ccccc1N1CCCC1)c1cccc(F)c1` (configuration not stated), the IC50 is 360 nM.

In the case of `O=C(Nc1ccccc1N1CCCC1)[C@@H]1CCCc2ccccc21`, the IC50 was 29900 nM.

As to `CCC(C(=O)Nc1ccccc1N1CCCC1)c1ccccc1F` (configuration not stated), the IC50 was 440 nM.

Turning to `Cc1cccc(CC(=O)Nc2ccccc2N2CCCC2)c1`, the 50% inhibitory concentration (IC50) was 1320 nM.

`O=C(Cc1ccc(F)c(F)c1)Nc1ccccc1N1CCCC1`: the IC50 is 1730 nM.

Regarding `O=C(Nc1ccccc1N1CCCC1)C(c1ccccc1)C1CC1` (configuration not stated), the half-inhibitory concentration (IC50) was 3500 nM.

As for `O=C(Nc1ccccc1N1CCCC1)[C@H]1CCc2ccccc21`, the IC50 is 14100 nM.

Consider `COc1ccc(CC(=O)Nc2ccccc2N2CCCC2)cc1`, for which the IC50 is 1750 nM.

Turning to `O=C(Cc1c(F)cccc1F)Nc1ccccc1N1CCCC1`, the IC50 is 560 nM.

`CC[C@@H](C(=O)Nc1ccc(N2CCCC2)cc1)c1ccccc1`: the IC50 was 360 nM.

For `O=C(Cc1cccc(F)c1)Nc1ccccc1N1CCCC1`, the IC50 is 490 nM.

For `CCC(C(=O)Nc1ccccc1N1CCCC1)c1cccc(C)c1` (configuration not stated), the half-maximal inhibitory concentration (IC50) was 330 nM.

Take `CC[C@H](C(=O)Nc1ccc(N2CCCC2)cc1)c1ccccc1`: the IC50 was 110 nM.

On to `CCC(C(=O)Nc1ccccc1N1CCCC1)c1ccc(Cl)c(Cl)c1` (configuration not stated), for which the IC50 is 470 nM.

As for `O=C(Cc1ccc(Cl)cc1)Nc1ccccc1N1CCCC1`, the half-maximal inhibitory concentration (IC50) was 800 nM.

`CCC(C(=O)Nc1ccccc1N1CCCC1)c1ccccc1` (configuration not stated): the half-inhibitory concentration (IC50) is 160 nM.

Take `O=C(Cc1ccccc1Cl)Nc1ccccc1N1CCCC1`: the IC50 is 950 nM.

As to `CCC(C(=O)Nc1ccccc1N1CCOCC1)c1ccccc1` (configuration not stated), the 50% inhibitory concentration (IC50) was 12700 nM.

On to `CC[C@H](C(=O)Nc1ccccc1N1CCCC1)c1ccccc1`, for which the IC50 was 80 nM.

Consider `CC(C(=O)Nc1ccccc1N1CCCC1)c1ccccc1` (configuration not stated), for which the concentration for half-maximal inhibition (IC50) was 260 nM.

With `O=C(Cc1cccc(Cl)c1)Nc1ccccc1N1CCCC1`, the 50% inhibitory concentration (IC50) is 170 nM.

As for `CCC(C(=O)Nc1ccccc1N1CCCC1)c1ccc(Cl)cc1` (configuration not stated), the IC50 was 280 nM.

Take `CCCC(C(=O)Nc1ccccc1N1CCCC1)c1ccccc1` (configuration not stated): the IC50 was 320 nM.

Turning to `CCC(C(=O)Nc1ccccc1N(C)C)c1ccccc1` (configuration not stated), the IC50 is 17400 nM.

As for `O=C(Nc1ccccc1N1CCCC1)C1CCc2ccccc21` (configuration not stated), the IC50 was 330 nM.

`O=C(Cc1ccccc1)Nc1ccccc1N1CCCC1`: the IC50 was 740 nM.

`CCC(C(=O)Nc1ccccc1Cl)c1ccccc1` (configuration not stated): the concentration for half-maximal inhibition (IC50) is 15000 nM.

As for `O=C(Nc1ccccc1N1CCCC1)C(F)c1ccccc1` (configuration not stated), the IC50 is 990 nM.

With `CCC(C(=O)Nc1ccccc1N1CCCC1)c1cccc(Cl)c1` (configuration not stated), the IC50 was 240 nM.

As to `O=C(Cc1cccc(C(F)(F)F)c1)Nc1ccccc1N1CCCC1`, the concentration for half-maximal inhibition (IC50) is 350 nM.

Consider `CCC(C(=O)Nc1ccccc1N1CCCC1)c1ccc(F)c(F)c1` (configuration not stated), for which the IC50 was 170 nM.

With `O=C(Nc1ccccc1N1CCCC1)[C@@H]1CCc2ccccc21`, the IC50 is 2290 nM.

For `COc1cccc(CC(=O)Nc2ccccc2N2CCCC2)c1`, the half-maximal inhibitory concentration (IC50) was 2350 nM.

The same assay, now with this note: KCNQ2-CHO automated patch clamp current; at 30 µM (top of the series).
For the molecule `O=C(Nc1ccccc1N1CCCC1)C1(c2ccccc2)CC1`, the “current change, negative = inhibition” value is “inactive”.

As to `CCC(C(=O)Nc1ccccc1-n1c(C)ccc1C)c1ccccc1` (configuration not stated), the “current change, negative = inhibition” value was “inactive”.

`O=C(Nc1ccccc1N1CCCC1)C1CCOc2ccccc21` (configuration not stated): the “current change, negative = inhibition” value was “inactive”.

For `CCC(C(=O)Nc1ccccc1N1CCCCC1)c1ccccc1` (configuration not stated), the “current change, negative = inhibition” value was “inactive”.

Turning to `O=C(Cc1ccccc1F)Nc1ccccc1N1CCCC1`, the “current change, negative = inhibition” value was “inactive”.

Consider `CC(C)C(C(=O)Nc1ccccc1N1CCCC1)c1ccccc1` (configuration not stated), for which the “current change, negative = inhibition” value is “inactive”.

Consider `CCC(C(=O)Nc1ccccc1OC)c1ccccc1` (configuration not stated), for which the “current change, negative = inhibition” value is “inactive”.

Turning to `CCC(C(=O)Nc1ccccc1N1CCCCCCC1)c1ccccc1` (configuration not stated), the “current change, negative = inhibition” value was “inactive”.

For `CCC(C(=O)Nc1ccccc1N(C)CC)c1ccccc1` (configuration not stated), the “current change, negative = inhibition” value was “inactive”.

For the molecule `CCC(C(=O)Nc1ccccc1N(C)Cc1ccccc1)c1ccccc1` (configuration not stated), the “current change, negative = inhibition” value was “inactive”.

Consider `CCC(C(=O)Nc1cccc(N2CCCC2)c1)c1ccccc1` (configuration not stated), for which the “current change, negative = inhibition” value was “inactive”.

As for `CC(C)(C(=O)Nc1ccccc1N1CCCC1)c1ccccc1`, the “current change, negative = inhibition” value was “inactive”.

As for `CCC(C(=O)Nc1ccccc1-n1ccnc1)c1ccccc1` (configuration not stated), the “current change, negative = inhibition” value is “inactive”.

As for `CCC(C(=O)Nc1ccccc1N1C(=O)CCC1=O)c1ccccc1` (configuration not stated), the “current change, negative = inhibition” value was “inactive”.

For orientation: IC50 means the midpoint of a concentration-inhibition curve.
